Data as given in patent publication US12209087B2, “AKT1 modulators” (Alterome Therapeutics, Inc., priority 2022, dated 2025).
pIC50: −log10 of the molar value.

Target: T1, full length AKT E17K (Homo sapiens, UniProt P31749, E17K)
T1 construct: host or cells: HEK-293 (ATCC CRL-1573)
Experiment: NanoBRET Target Engagement (TE) Assay
Format: cell-based
Details: competitive displacement of tracer in cells, read-out: AKT1 E17K IC50
Excerpt: The NanoBRET™ Target Engagement (TE) Intracellular Kinase Assays are based on the NanoBRET™ System (Promega Corporation), an energy transfer technique designed to measure molecular proximity in living cells. The NanoBRET™ TE Assays measure the apparent affinity of test compounds by competitive displacement of the NanoBRET™ tracer compound, which is a cell permeable molecule engineered to be reversibly bound to a NanoLuc® luciferase-kinase fusion expressed in cells. For compound screening, when a test compound binds to the selected kinase, the BRET signal is attenuated. […] All cells were evaluated for viability prior to transfection and optimization of the transfection was done prior to experimentation. […] Following transfection, cells were washed and resuspended in Opti-MEM. NanoBRET assays were performed in white, 384-well plates (Corning) at a density of […]. All example compounds were prepared as concentrated stock solutions in DMSO (Sigma-Aldrich). Compounds are dissolved in DMSO to make 10 mM stock solution. […] A Labcyte ECHO 550 compound dispenser was used to facilitate compound transfer directly to cells. Cells were equilibrated for 2 hr with energy transfer probes and example compound prior to BRET measurements. […] For target engagement analysis, the energy transfer probes were added to the cells at concentrations optimized for the target in question (AKT E17K). Following compound incubation, NanoBRET NanoGlo Substrate (Promega Cat #N157D) and Extracellular Nanoluc Inhibitor (Promega Cat #N235C) was added according to the manufacturer's recommended protocol, and luminescence was measured on Envision Reader (Perkin Elmer) Multimode Luminometer equipped with 450 nm BPfilter (donor) and 600 nm LPfilter (acceptor), using 0.5 s integration time. Milli-BRET units (mBU) are calculated by multiplying the raw BRET values by 1000. Apparent tracer affinity values (EC50) were determined using the sigmoidal dose-response (variable slope).
Competitive displacement data were then plotted and data were fit to determine the EC50 value for each example compound.

T1 sequence (P31749 whole entry E17K): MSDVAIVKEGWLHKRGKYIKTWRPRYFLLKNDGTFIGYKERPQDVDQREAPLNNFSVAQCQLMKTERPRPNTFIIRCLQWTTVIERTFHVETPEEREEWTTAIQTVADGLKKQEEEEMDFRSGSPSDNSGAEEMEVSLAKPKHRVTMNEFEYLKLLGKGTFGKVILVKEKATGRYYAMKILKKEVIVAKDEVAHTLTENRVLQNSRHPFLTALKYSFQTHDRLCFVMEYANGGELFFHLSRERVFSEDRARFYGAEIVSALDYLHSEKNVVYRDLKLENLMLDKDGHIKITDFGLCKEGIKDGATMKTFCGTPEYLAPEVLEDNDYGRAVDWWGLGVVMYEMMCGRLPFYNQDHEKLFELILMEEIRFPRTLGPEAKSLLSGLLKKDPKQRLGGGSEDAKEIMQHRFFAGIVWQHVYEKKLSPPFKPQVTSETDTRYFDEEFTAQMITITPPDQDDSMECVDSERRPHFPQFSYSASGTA

SMILES | pIC50
Cc1ccnc(-c2ccc3nc(-c4cccnc4N)n(-c4ccc(CN5CCC(Nc6ccnc(C#N)n6)CC5)cc4)c3n2)c1 [Example 596, 4-((1-(4-(2-(2-Aminopyridin-3-yl)-5-(4-methylpyridin-2-yl)-3H-imidazo[4,5-b]pyridin-3-yl)benzyl)piperidin-4-yl)amino)pyrimidine-2-carbonitrile] | > 7.82
N#Cc1nccc(NC2CCN(Cc3ccc(-n4c(-c5cccnc5N)nc5ccc(-c6ccc(OCF)nc6)nc54)cc3)CC2)n1 [Example 606, 4-((1-(4-(2-(2-Aminopyridin-3-yl)-5-(6-(fluoromethoxy)pyridin-3-yl)-3H-imidazo[4,5-b]pyridin-3-yl)benzyl)piperidin-4-yl)amino)pyrimidine-2-carbonitrile] | > 7.82
Cc1cc(F)ccc1-c1ccc2nc(-c3cccnc3N)n(-c3ccc(CN4CCC(Nc5ccnc(C#N)n5)CC4)cc3)c2n1 [Example 523, 4-((1-(4-(2-(2-Aminopyridin-3-yl)-5-(4-fluoro-2-methylphenyl)-3H-imidazo[4,5-b]pyridin-3-yl)benzyl)piperidin-4-yl)amino)pyrimidine-2-carbonitrile] | 7.22 to 7.82
N#Cc1nccc(NC2CCN(Cc3ccc(-n4c(-c5nccnc5N)nc5ccc(-c6ccc(F)cn6)nc54)cc3)CC2)n1 [Example 574, 4-((1-(4-(2-(3-Aminopyrazin-2-yl)-5-(5-fluoropyridin-2-yl)-3H-imidazo[4,5-b]pyridin-3-yl)benzyl)piperidin-4-yl)amino)pyrimidine-2-carbonitrile] | > 7.82
Cn1cc(-c2ccc3nc(-c4cccnc4N)n(-c4ccc(CN5CCC(Nc6ccnc(C#N)n6)CC5)cc4)c3n2)ccc1=O [Example 355, 4-((1-(4-(2-(2-Aminopyridin-3-yl)-5-(1-methyl-6-oxo-1,6-dihydropyridin-3-yl)-3H-imidazo[4,5-b]pyridin-3-yl)benzyl)piperidin-4-yl)amino)pyrimidine-2-carbonitrile] | 7.22 to 7.82
N#Cc1nccc(NC2CCN(Cc3ccc(-n4c(-c5cccnc5N)nc5ccc(-c6cscn6)nc54)cc3)CC2)n1 [Example 482, 4-((1-(4-(2-(2-Aminopyridin-3-yl)-5-(thiazol-4-yl)-3H-imidazo[4,5-b]pyridin-3-yl)benzyl)piperidin-4-yl)amino)pyrimidine-2-carbonitrile] | > 7.82
N#Cc1nccc(NC2CCN(Cc3ccc(-n4c(-c5cccnc5N)nc5ccc(-c6cccnc6F)nc54)cc3)CC2)n1 [Example 558, 4-((1-(4-(2-(2-Aminopyridin-3-yl)-5-(2-fluoropyridin-3-yl)-3H-imidazo[4,5-b]pyridin-3-yl)benzyl)piperidin-4-yl)amino)pyrimidine-2-carbonitrile] | > 7.82
Cc1cnc(-c2ccc3nc(-c4cccnc4N)n(-c4ccc(CN5CCC(Nc6ccnc(C#N)n6)CC5)cc4)c3n2)nc1 [Example 604, 4-((1-(4-(2-(2-Aminopyridin-3-yl)-5-(5-methylpyrimidin-2-yl)-3H-imidazo[4,5-b]pyridin-3-yl)benzyl)piperidin-4-yl)amino)pyrimidine-2-carbonitrile] | > 7.82
N#Cc1nccc(N2CCN(Cc3ccc(-n4c(-c5cccnc5N)nc5ccc(-c6ccc(Cl)cc6)nc54)cc3)CC2)n1 [Example 342, 4-(4-(4-(2-(2-Aminopyridin-3-yl)-5-(4-chlorophenyl)-3H-imidazo[4,5-b]pyridin-3-yl)benzyl)piperazin-1-yl)pyrimidine-2-carbonitrile] | 7.22 to 7.82
N#Cc1cccc(-c2ccc3nc(-c4cccnc4N)n(-c4ccc(CN5CCC(Nc6ccnc(C#N)n6)CC5)cc4)c3n2)n1 [Example 428, 4-((1-(4-(2-(2-Aminopyridin-3-yl)-5-(6-cyanopyridin-2-yl)-3H-imidazo[4,5-b]pyridin-3-yl)benzyl)piperidin-4-yl)amino)pyrimidine-2-carbonitrile] | 7.22 to 7.82

Same assay, conditions: competitive tracer displacement in living cells, read-out: AKT1 E17K IC50

SMILES | pIC50
N#Cc1nccc(NC2CCN(Cc3ccc(-n4c(-c5cccnc5N)nc5ccc(-c6cccc(=O)[nH]6)nc54)cc3)CC2)n1 [Example 267, 4-((1-(4-(2-(2-Aminopyridin-3-yl)-5-(6-oxo-1,6-dihydropyridin-2-yl)-3H-imidazo[4,5-b]pyridin-3-yl)benzyl)piperidin-4-yl)amino)pyrimidine-2-carbonitrile] | > 7.82
N#Cc1ccnc(N2CCN(Cc3ccc(-n4c(-c5cccnc5N)nc5cccnc54)cc3)CC2)n1 [Example 20, 2-(4-(4-(2-(2-aminopyridin-3-yl)-3H-imidazo[4,5-b]pyridin-3-yl)benzyl)piperazin-1-yl)pyrimidine-4-carbonitrile] | 5.00 to 6.22
N#Cc1nccc(N2CCCN(Cc3ccc(-n4c(-c5cccnc5N)nc5ccc(-c6ccccc6)nc54)cc3)CC2)n1 [Example 214, 4-(4-(4-(2-(2-Aminopyridin-3-yl)-5-phenyl-3H-imidazo[4,5-b]pyridin-3-yl)benzyl)-1,4-diazepan-1-yl)pyrimidine-2-carbonitrile] | 7.22 to 7.82
N#Cc1nccc(C(=O)NC2CCN(Cc3ccc(-n4c(-c5cccnc5N)nc5cccnc54)cc3)CC2)n1 [Example 32, N-(1-(4-(2-(2-Aminopyridin-3-yl)-3H-imidazo[4,5-b]pyridin-3-yl)benzyl)piperidin-4-yl)-2-cyanopyrimidine-4-carboxamide] | 6.22 to 7.22
N#Cc1cccnc1C(=O)N1CCN(Cc2ccc(-n3c(-c4cccnc4N)nc4cccnc43)cc2)CC1 [Example 110, 2-(4-(4-(2-(2-Aminopyridin-3-yl)-3H-imidazo[4,5-b]pyridin-3-yl)benzyl)piperazine-1-carbonyl)nicotinonitrile] | 5.00 to 6.22
N#Cc1ccnc(N2CCN(Cc3ccc(-n4c(-c5cccnc5N)nc5ccc(N6CCOCC6)nc54)cc3)CC2)n1 [Example 236, 2-(4-(4-(2-(2-Aminopyridin-3-yl)-5-morpholino-3H-imidazo[4,5-b]pyridin-3-yl)benzyl)piperazin-1-yl)pyrimidine-4-carbonitrile] | 7.22 to 7.82
N#Cc1ncccc1C(=O)NCc1ccc(-n2c(-c3cccnc3N)nc3cccnc32)cc1 [Example 98, N-(4-(2-(2-Aminopyridin-3-yl)-3H-imidazo[4,5-b]pyridin-3-yl)benzyl)-2-cyanonicotinamide] | 5.00 to 6.22
N#Cc1ncnc(N2CC[C@@]3(CCN(Cc4ccc(-n5c(-c6cccnc6N)nc6ccc(-c7ccccc7)nc65)cc4)C3)C2)n1 [Example 255, (R)-4-(7-(4-(2-(2-aminopyridin-3-yl)-5-phenyl-3H-imidazo[4,5-b]pyridin-3-yl)benzyl)-2,7-diazaspiro[4.4]nonan-2-yl)-1,3,5-triazine-2-carbonitrile] | > 7.82
N#Cc1ccc(C(=O)N2CCN(Cc3ccc(-n4c(-c5cccnc5N)nc5cc(-c6ccccc6)cnc54)cc3)CC2)cn1 [Example 111, 5-(4-(4-(2-(2-Aminopyridin-3-yl)-6-phenyl-3H-imidazo[4,5-b]pyridin-3-yl)benzyl)piperazine-1-carbonyl)picolinonitrile] | 5.00 to 6.22
N#Cc1nccc(C(=O)NCc2ccc(-n3c(-c4cccnc4N)nc4cccnc43)cc2)n1 [Example 148, N-(4-(2-(2-Aminopyridin-3-yl)-3H-imidazo[4,5-b]pyridin-3-yl)benzyl)-2-cyanopyrimidine-4-carboxamide] | 5.00 to 6.22
N#Cc1ncnc(N2CCCC3(CCN(Cc4ccc(-n5c(-c6cccnc6N)nc6ccc(-c7ccccc7)nc65)cc4)C3)C2)n1 (stereo not drawn) [Example 253, 4-(2-(4-(2-(2-Aminopyridin-3-yl)-5-phenyl-3H-imidazo[4,5-b]pyridin-3-yl)benzyl)-2,7-diazaspiro[4.5]decan-7-yl)-1,3,5-triazine-2-carbonitrile] | 7.22 to 7.82
